# Patent publication US20260041620A1, “NOVEL AMINO ACID BASED SALTS, COMPOSITIONS AND METHODS FOR TREATING SKIN AND IMPROVING SKIN REJUVENATION AND LONGEVITY” (Sytheon Ltd, priority 2023, published 2026)
# Marks after values point to notes of the source that are not given here.
# Columns and labels:
# [1] = tested on: normal human adipose-derived mesenchymal stem cells (MSC); test: Reprograming of aged mesenchymal stem cells, gene expression by qPCR; assay type: cell-based; conditions: 10 ug/ml, 72 hours, starved MSC
# From the text: MSCs are a multipotent type of stem cell that, directly or indirectly, have a significant impact on a number of physiological processes, including the proliferation and differentiation of epidermal cells and regeneration of the epidermal layer; however, as they age they show lower stemness and regenerative potential. MSCs are shown to enhance wound healing, to restore the barrier function of the skin, and to address skin aging, particularly aging due to sun exposure as well as natural senescence, including reducing the manifestation and/or degree of wrinkles. An evaluation was conducted to ascertain the effect, if any, of zinc di-(di-n-butyryl lysinate) (“ZDBL”) on MSCs. Specifically, normal human adipose-derived mesenchymal stem cells (MSC) (ATCC, Manassas, VA—PCS-500-011) were seeded in mesenchymal stem cell basal medium (ATCC, Manassas, VA—PCS500-030) supplemented with the MSC growth kit starvation media (ATCC, Manassas, VA—PCS500-040-811S) and cultured at 37° C. in a humidified 5% CO2 atmosphere using an VWR tissue culture incubator, Approximately 24 hours after a portion of the cells was placed in the starvation medium to generate stress, they were exposed to the ZDBL (10 ug/ml) and incubated for 72 hours: the remaining portion was not exposed to the ZDBL. RNA was then extracted for gene expression quantification by qPCR.
# [2] = tested on: Telomerase; test: Telomerase Activity Quantification qPCR Assay in human dermal fibroblasts; assay type: cell-based; conditions: three days
# Procedure: Normal neonatal human dermal fibroblasts (HDF cat, #2310; ScienCell, Oceanside, CA) were grown to confluence in the 6 well plate format and incubated with the test substances identified in Table 3 for three days. Following incubation, the cells were lysed and telomerase activity was determined with Telomerase Activity Quantification qPCR Assay Kit from ScienCell (cat. #8928). Forget-Me-Not™ EvaGreen® qPCR Master Mix (Low ROX) (Biotium, Fremont, CA) was used for real-time quantitative PCR on C1000 Touch System with CFX384™ optical module Detection. For quantifying the level of activity, the Comparative Cq method was used, following the equation: […]
# where TPS is telomere primer set, which recognizes and amplifies newly synthesized telomere sequences and Cq(TPS) is the Quantification Cycle Value obtained from the qPCR software. The relative telomerase activity difference between the experimental condition and control is expressed as 2^−ΔCq Telomerase activity was considered different if the level of expression was reasonably high (Cq≤33 cycles to detect), the difference vs. control was >2 fold and the p value, assessed with two-tailed Student test, was <0.05.
# [3] = target: HDAC1 (Homo sapiens, UniProt Q13547); conditions: reported, abcam; cited from earlier work
# Chain of HDAC1 (Q13547 whole entry, species assumed): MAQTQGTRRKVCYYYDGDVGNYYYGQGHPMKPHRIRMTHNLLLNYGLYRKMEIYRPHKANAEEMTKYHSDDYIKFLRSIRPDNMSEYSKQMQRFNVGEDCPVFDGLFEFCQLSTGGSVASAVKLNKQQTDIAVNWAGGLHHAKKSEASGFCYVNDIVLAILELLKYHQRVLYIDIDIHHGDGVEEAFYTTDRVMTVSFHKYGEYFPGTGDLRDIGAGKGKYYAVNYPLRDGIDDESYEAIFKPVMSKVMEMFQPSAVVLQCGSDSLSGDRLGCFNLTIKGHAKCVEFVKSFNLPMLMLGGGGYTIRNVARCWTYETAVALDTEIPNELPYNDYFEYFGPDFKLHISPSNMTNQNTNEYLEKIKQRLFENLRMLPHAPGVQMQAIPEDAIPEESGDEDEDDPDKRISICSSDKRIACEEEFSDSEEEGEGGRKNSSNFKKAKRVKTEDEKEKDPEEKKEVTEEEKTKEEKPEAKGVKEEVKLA
# [4] = target: T1, HDAC7 (Homo sapiens, UniProt Q8WUI4); conditions: reported, abcam; cited from earlier work
# T1 sequence (Q8WUI4 1-952): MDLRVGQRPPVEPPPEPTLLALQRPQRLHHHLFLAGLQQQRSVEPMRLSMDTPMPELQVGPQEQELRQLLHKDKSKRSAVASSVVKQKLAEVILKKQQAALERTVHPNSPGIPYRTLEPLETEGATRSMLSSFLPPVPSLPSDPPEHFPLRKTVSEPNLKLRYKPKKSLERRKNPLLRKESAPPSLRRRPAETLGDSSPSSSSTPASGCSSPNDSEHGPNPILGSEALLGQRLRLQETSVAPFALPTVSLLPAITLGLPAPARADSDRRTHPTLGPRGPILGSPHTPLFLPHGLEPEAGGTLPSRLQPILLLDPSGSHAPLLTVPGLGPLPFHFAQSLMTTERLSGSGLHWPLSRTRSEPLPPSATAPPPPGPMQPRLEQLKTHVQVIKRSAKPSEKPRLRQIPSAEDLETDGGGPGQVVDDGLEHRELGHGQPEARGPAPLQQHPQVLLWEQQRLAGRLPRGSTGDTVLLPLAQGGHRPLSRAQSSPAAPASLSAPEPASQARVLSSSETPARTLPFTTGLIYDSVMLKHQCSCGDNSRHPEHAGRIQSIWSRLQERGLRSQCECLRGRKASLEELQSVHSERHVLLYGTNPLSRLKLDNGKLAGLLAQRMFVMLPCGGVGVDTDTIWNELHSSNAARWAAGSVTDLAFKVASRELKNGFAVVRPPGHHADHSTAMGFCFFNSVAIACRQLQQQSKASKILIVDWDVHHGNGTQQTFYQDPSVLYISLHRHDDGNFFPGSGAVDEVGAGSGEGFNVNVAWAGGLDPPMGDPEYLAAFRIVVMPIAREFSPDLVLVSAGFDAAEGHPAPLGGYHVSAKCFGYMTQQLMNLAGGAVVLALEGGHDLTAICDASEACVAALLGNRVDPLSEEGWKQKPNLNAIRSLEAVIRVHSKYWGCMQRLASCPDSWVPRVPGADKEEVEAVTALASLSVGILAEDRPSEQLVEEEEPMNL
# [5] = target: T2, HDAC10 (Homo sapiens, UniProt Q969S8); conditions: reported, abcam; cited from earlier work
# T2 sequence (Q969S8 1-669): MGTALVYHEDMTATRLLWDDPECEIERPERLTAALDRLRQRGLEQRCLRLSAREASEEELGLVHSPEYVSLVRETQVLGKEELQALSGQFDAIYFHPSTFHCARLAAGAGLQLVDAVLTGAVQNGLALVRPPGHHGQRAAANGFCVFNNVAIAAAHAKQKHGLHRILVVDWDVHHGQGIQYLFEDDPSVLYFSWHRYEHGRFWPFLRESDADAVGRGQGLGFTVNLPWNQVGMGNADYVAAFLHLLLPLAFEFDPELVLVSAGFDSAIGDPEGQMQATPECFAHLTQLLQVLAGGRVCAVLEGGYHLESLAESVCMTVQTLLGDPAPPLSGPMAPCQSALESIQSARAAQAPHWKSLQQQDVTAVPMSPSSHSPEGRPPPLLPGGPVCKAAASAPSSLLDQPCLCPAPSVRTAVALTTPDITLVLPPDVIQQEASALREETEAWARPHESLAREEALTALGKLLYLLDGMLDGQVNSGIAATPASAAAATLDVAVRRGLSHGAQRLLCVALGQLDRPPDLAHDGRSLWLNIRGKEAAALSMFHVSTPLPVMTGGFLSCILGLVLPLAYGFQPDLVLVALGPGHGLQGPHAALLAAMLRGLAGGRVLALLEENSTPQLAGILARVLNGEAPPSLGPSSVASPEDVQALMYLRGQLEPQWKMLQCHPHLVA
smiles,measurement,setting,value
"CCCC(=O)NCCCC[C@H](NC(=O)CCC)C(=O)[O-].CCCC(=O)NCCCC[C@H](NC(=O)CCC)C(=O)[O-].[Zn+2] [Zn di-(di-n-butyryl lysinate), Zinc di-(di-n-butyryl lysinate)]","BMP7 gene expression, Fold Change versus control",[1],1.8* fold
same,"DACT1 gene expression, Fold Change versus control",[1],2.2** fold
same,"DLK1 gene expression, Fold Change versus control",[1],2.4** fold
same,"DPP4 gene expression, Fold Change versus control",[1],−1.8** fold
same,"OCT4 gene expression, Fold Change versus control",[1],1.7** fold
same,"SOX2 gene expression, Fold Change versus control",[1],2.4* fold
same,"SQSTM1/p62 gene expression, Fold Change versus control",[1],1.7* fold
same,"TP63 gene expression, Fold Change versus control",[1],3.0** fold
same,"WNT2 gene expression, Fold Change versus control",[1],1.9** fold
same,Average Cq(TPS),[2]; 10 μg/ml,30.7
same,Telomerase Activity (FC vs. water),[2]; 10 μg/ml,8.9 FC
same,ΔCq sample-water,[2]; 10 μg/ml,3.2
same,Average Cq(TPS),[2]; 50 μg/ml,30.0
same,Telomerase Activity (FC vs. water),[2]; 50 μg/ml,14.6 FC
same,ΔCq sample-water,[2]; 50 μg/ml,3.9
"CCCC(=O)[O-].[Na+] [Sodium butyrate, reference compound]",Average Cq(TPS),[2]; 50 μg/ml,34.3
same,Telomerase Activity (FC vs. water),[2]; 50 μg/ml,0.7 FC
same,ΔCq sample-water,[2]; 50 μg/ml,−0.5
same,Average Cq(TPS),[2]; 100 μg/ml,33.7
same,Telomerase Activity (FC vs. water),[2]; 100 μg/ml,1.1 FC
same,ΔCq sample-water,[2]; 100 μg/ml,0.1
same,IC50,[3],300 µM
same,IC50,[4],300 µM
same,inhibition of HDAC10,[5],no inhibition
